The record followed here is patent US10189836B2, “Therapeutic compounds, compositions and methods of use thereof” (Genentech, Inc., priority 2015, dated 2019).

Structures are written as SMILES.

Assay [1] deals with isolated recombinant JAK2 kinase domain (Homo sapiens (Human), UniProt O60674). Briefly: JAK2 enzyme assay (Caliper LabChip, Ki). The class given is biochemical. The settings on record: isolated recombinant JAK2 kinase domain, 0.2 nM enzyme, ATP 25 μM.
The target in assay [2] is isolated recombinant JAK1 kinase domain (Homo sapiens (Human), UniProt P23458). In words: JAK1 enzyme assay (Caliper LabChip, Ki). Conditions: isolated recombinant JAK1 kinase domain, 1.5 nM enzyme, ATP 25 μM. The assay is classed as biochemical.
Chain of isolated recombinant JAK1 kinase domain (P23458 875-1153): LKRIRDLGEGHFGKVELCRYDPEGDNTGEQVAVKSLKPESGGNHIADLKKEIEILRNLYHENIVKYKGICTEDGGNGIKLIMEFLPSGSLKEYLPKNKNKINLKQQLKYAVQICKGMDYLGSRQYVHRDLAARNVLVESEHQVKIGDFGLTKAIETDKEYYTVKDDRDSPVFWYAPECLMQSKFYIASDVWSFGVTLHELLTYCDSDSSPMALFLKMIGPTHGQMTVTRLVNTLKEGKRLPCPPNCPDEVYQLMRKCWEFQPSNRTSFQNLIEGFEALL

Chain of isolated recombinant JAK2 kinase domain (O60674 849-1124): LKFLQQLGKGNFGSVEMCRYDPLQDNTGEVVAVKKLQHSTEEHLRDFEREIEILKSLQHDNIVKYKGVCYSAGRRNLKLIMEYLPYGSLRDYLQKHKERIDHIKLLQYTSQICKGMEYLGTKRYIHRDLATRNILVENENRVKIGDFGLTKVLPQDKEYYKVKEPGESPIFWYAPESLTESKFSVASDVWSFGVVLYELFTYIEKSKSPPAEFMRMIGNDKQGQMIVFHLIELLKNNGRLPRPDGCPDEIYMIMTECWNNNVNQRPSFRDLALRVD

By Ki is commonly meant the dissociation constant of the complex between target and ligand, obtained from inhibition or displacement. On to `CN1CCN(C(=O)Cn2cc(Nc3nc4c(N5CC6CCC(C5)N6C(=O)CC(F)(F)F)cccn4n3)cn2)CC1` [Example 12, 3,3,3-trifluoro-1-[3-[2-[[1-[2-(4-methylpiperazin-1-yl)-2-oxo-ethyl]pyrazol-4-yl]amino]-[1,2,4]triazolo[1,5-a]pyridin-8-yl]-3,8-diazabicyclo[3.2.1]octan-8-yl]propan-1-one], for which the Ki in assay [1] was found to be 1.7 nM; in assay [2] it was 0.7 nM.
The corresponding values for `CN1CCN(C(=O)Cn2cc(Nc3nc4c(N5CC6CCC(C5)N6C(=O)C5CC5C(F)(F)F)cccn4n3)cn2)CC1` (stereo not drawn) [Example 14, 1-(4-methylpiperazin-1-yl)-2-[4-[[8-[8-[2-(trifluoromethyl)cyclopropanecarbonyl]-3,8-diazabicyclo[3.2.1]octan-3-yl]-[1,2,4]triazolo[1,5-a]pyridin-2-yl]amino]pyrazol-1-yl]ethanone] are 1.1 nM and 1 nM.
For `CN1CCN(C(=O)Cn2cc(Nc3nc4c(N5CC6CCC(C5)N6C(=O)[C@H]5C[C@@H](C(F)(F)F)C5)cccn4n3)cn2)CC1` [Example 15, formic acid; 1-(4-methylpiperazin-1-yl)-2-[4-[[8-[8-[3-(trifluoromethyl)cyclobutanecarbonyl]-3,8-diazabicyclo[3.2.1]octan-3-yl]-[1,2,4]triazolo[1,5-a]pyridin-2-yl]amino]pyrazol-1-yl]ethanone], in that order: 3.7 nM and 1.1 nM.
For `CN1CCN(C(=O)Cn2cc(Nc3nc4c(N5CC6CCC(C5)N6C(=O)CC5CC5(F)F)cccn4n3)cn2)CC1` (stereo not drawn) [Example 16, 2-(2,2-difluorocyclopropyl)-1-[3-[2-[[1-[2-(4-methylpiperazin-1-yl)-2-oxo-ethyl]pyrazol-4-yl]amino]-[1,2,4]triazolo[1,5-a]pyridin-8-yl]-3,8-diazabicyclo[3.2.1]octan-8-yl]ethanone], in that order: 1.8 nM and 1 nM.
Turning to `CN1CCN(C(=O)Cn2cc(Nc3nc4c(N5CC6CC(C5)N6Cc5ccc(Cl)cc5)cccn4n3)cn2)CC1` [Example 34, 2-[4-[(8-[6-[(4-chlorophenyl)methyl]-3,6-diazabicyclo[3.1.1]heptan-3-yl]-[1,2,4]triazolo[1,5-a]pyridin-2-yl)amino]-1H-pyrazol-1-yl]-1-(4-methylpiperazin-1-yl)ethan-1-one], the Ki in assay [1] stood at 271 nM; in assay [2], 68.8 nM.
With `CN1CCN(C(=O)Cn2cc(Nc3nc4c(N5CC6CCC(C5)N6C(=O)C5CC5(F)F)cccn4n3)cn2)CC1` (stereo not drawn) [Example 37, 2-[4-[[8-[8-(2,2-difluorocyclopropanecarbonyl)-3,8-diazabicyclo[3.2.1]octan-3-yl]-[1,2,4]triazolo[1,5-a]pyridin-2-yl]amino]pyrazol-1-yl]-1-(4-methylpiperazin-1-yl)ethanone], the results for the Ki in assay [1] and in assay [2] were 1.8 nM and 1.3 nM, respectively.
The corresponding values for `CN1CCN(C(=O)Cn2cc(Nc3nc4c(N5CC6CCC(C5)N6C(=O)C5(C(F)(F)F)CC5)cccn4n3)cn2)CC1` [Example 38, 1-(4-methylpiperazin-1-yl)-2-[4-[[8-[8-[1-(trifluoromethyl)cyclopropanecarbonyl]-3,8-diazabicyclo[3.2.1]octan-3-yl]-[1,2,4]triazolo[1,5-a]pyridin-2-yl]amino]pyrazol-1-yl]ethanone] are 1.8 nM and 1.3 nM.
The corresponding values for `O=C(Cn1cc(Nc2nc3c(N4CC5CCC(C4)N5C(=O)N4CC(C(F)(F)F)C4)cccn3n2)cn1)N1CCN(C2CCOCC2)CC1` [Example 39, 1-(4-tetrahydropyran-4-ylpiperazin-1-yl)-2-[4-[[8-[8-[3-(trifluoromethyl)azetidine-1-carbonyl]-3,8-diazabicyclo[3.2.1]octan-3-yl]-[1,2,4]triazolo[1,5-a]pyridin-2-yl]amino]pyrazol-1-yl]ethanone] are 0.4 nM and 0.7 nM.
As to `CN1CCN(C(=O)Cn2cc(Nc3nc4c(N5CC6CCCC(C5)N6C(=O)[C@H]5C[C@H](C(F)(F)F)C5)cccn4n3)cn2)CC1` [Example 40, 1-(4-methylpiperazin-1-yl)-2-[4-[[8-[9-[3-(trifluoromethyl)cyclobutanecarbonyl]-3,9-diazabicyclo[3.3.1]nonan-3-yl]-[1,2,4]triazolo[1,5-a]pyridin-2-yl]amino]pyrazol-1-yl]ethanone], the Ki in assay [1] and in assay [2] was 0.6 nM throughout.
In the case of `O=C(Cn1cc(Nc2nc3c(N4CC5CCC(C4)N5C(=O)CCC(F)(F)F)cccn3n2)cn1)N1CCC(CN2CCOCC2)CC1` [Example 41, 4,4,4-trifluoro-1-[3-[2-[[1-[2[4-(morpholinomethyl)-1-piperidyl]-2-oxo-ethyl]pyrazol-4-yl]amino]-[1,2,4]triazolo[1,5-a]pyridin-8-yl]-3,8-diazabicyclo[3.2.1]octan-8-yl]butan-1-one], the Ki stood at 4.6 nM in assay [1] and 2.6 nM in assay [2].
The corresponding values for `CN1CCN(C(=O)Cn2cc(Nc3nc4c(N5CC6CCC(C5)N6C(=O)Cc5ccncc5)cccn4n3)cn2)CC1` [Example 42, 1-[3-[2-[[1-[2-(4-methylpiperazin-1-yl)-2-oxo-ethyl]pyrazol-4-yl]amino]-[1,2,4]triazolo[1,5-a]pyridin-8-yl]-3,8-diazabicyclo[3.2.1]octan-pyridyl)ethanone] are 5.7 nM and 1.6 nM.
With `CN1CCN(C(=O)Cn2cc(Nc3nc4c(N5CC6CCC(C5)C6C(=O)N5CC(C(F)(F)F)C5)cccn4n3)cn2)CC1` (stereo not drawn) [Example 43, 1-(4-methylpiperazin-1-yl)-2-(4-[[8-(8-[[3-(trifluoromethyl)azetidin-1-yl]carbonyl]-3-azabicyclo[3.2.1]octan-3-yl)-[1,2,4]triazolo[1,5-a]pyridin-2-yl]amino]-1H-pyrazol-1-yl)ethan-1-one], the Ki was 1.9 nM in assay [1] and 1.1 nM in assay [2].
For `O=C(Cn1cc(Nc2nc3c(N4CC5CCC(C4)N5C(=O)N4CC(C(F)(F)F)C4)cccn3n2)cn1)N1CCC(N2CCOCC2)CC1` [Example 44, 1-(4-morpholino-1-piperidyl)-2-[4-[[8-[8-[3-(trifluoromethyl)azetidine-1-carbonyl]-3,8-diazabicyclo[3.2.1]octan-3-yl]-[1,2,4]triazolo[1,5-a]pyridin-2-yl]amino]pyrazol-1-yl]ethanone], in that order: 0.6 nM and 0.9 nM.
For `CN1CCN(C(=O)Cn2cc(Nc3nc4c(N5CC6CCC(C5)N6C(=O)COCC(F)(F)F)cccn4n3)cn2)CC1` [Example 45, 1-(4-methylpiperazin-1-yl)-2-[4-[[8-[8-[2-(2,2,2-trifluoroethoxy)acetyl]-3,8-diazabicyclo[3.2.1]octan-3-yl]-[1,2,4]triazolo[1,5-a]pyridin-2-yl]amino]pyrazol-1-yl]ethanone], in that order: 3.5 nM and 1 nM.
For `CN1CCN(C(=O)Cn2cc(Nc3nc4c(N5CC6CCC(C5)N6C(=O)C5CC(F)(F)C5)cccn4n3)cn2)CC1` [Example 46, 2-[4-[[8-[8-(3,3-difluorocyclobutanecarbonyl)-3-yl]-3,8-diazabicyclo[3.2.1]octan-[1,2,4]triazolo[1,5-a]pyridin-2-yl]amino]pyrazol-1-yl]-1-(4-methylpiperazin-1-yl)ethanone], in that order: 1.7 nM and 1.4 nM.
As for `CC(CC(F)(F)F)C(=O)N1C2CCC1CN(c1cccn3nc(Nc4cnn(CC(=O)N5CCN(C)CC5)c4)nc13)C2` (stereo not drawn) [Example 47, 4,4,4-trifluoro-2-methyl-1-[3-[2-[[1-[2-(4-methylpiperazin-1-yl)-2-oxo-ethyl]pyrazol-4-yl]amino]-[1,2,4]triazolo[1,5-a]pyridin-8-yl]-3,8-diazabicyclo[3.2.1]octan-8-yl]butan-1-one], the Ki in assay [1] is 2 nM; in assay [2] it was 1.8 nM.
The corresponding values for `CN1CCN(C(=O)Cn2cc(Nc3nc4c(N5C6CC5CN(C(=O)CCC(F)(F)F)C6)cccn4n3)cn2)CC1` [Example 48, 4,4,4-trifluoro-1-[6-[2-[[1-[2-(4-methylpiperazin-1-yl)-2-oxo-ethyl]pyrazol-4-yl]amino]-[1,2,4]triazolo[1,5-a]pyridin-8-yl]-3,6-diazabicyclo[3.1.1]heptan-3-yl]butan-1-one] are > 320 nM and > 560 nM.
For `CN1CCN(C(=O)Cn2cc(Nc3nc4c(N5CC6CCC(C5)N6C(=O)C5C6CC(F)(F)CC65)cccn4n3)cn2)CC1` (stereo not drawn) [Example 49, 2-[4-[[8-[8-(3,3-difluorobicyclo[3.1.0]hexane-6-carbonyl)-3,8-diazabicyclo[3.2.1]octan-3-yl]-[1,2,4]triazolo[1,5-a]pyridin-2-yl]amino]pyrazol-1-yl]-1-(4-methylpiperazin-1-yl)ethanone], the Ki in assay [1] turned out to be 4.1 nM; in assay [2], 1.5 nM.
The corresponding values for `CN1CCN(C(=O)Cn2cc(Nc3nc4c(N5CC6CCC(C5)N6C(=O)C5CCSC5)cccn4n3)cn2)CC1` (stereo not drawn) [Example 50, 1-(4-methylpiperazin-1-yl)-2-[4-[[8-[8-(tetrahydrothiophene-3-carbonyl)-3,8-diazabicyclo[3.2.1]octan-3-yl]-[1,2,4]triazolo[1,5-a]pyridin-2-yl]amino]pyrazol-1-yl]ethanone] are 1.5 nM and 1.2 nM.
On to `CN1CCN(C(=O)Cn2cc(Nc3nc4c(N5CC6CCC(C5)N6C(=O)C5CCC(F)(F)CC5)cccn4n3)cn2)CC1` [Example 51, 2-[4-[[8-[8-(4,4-difluorocyclohexanecarbonyl)-3,8-diazabicyclo[3.2.1]octan-3-yl]-[1,2,4]triazolo[1,5-a]pyridin-2-yl]amino]pyrazol-1-yl]-1-(4-methylpiperazin-1-yl)ethanone], for which the Ki in assay [1] turned out to be 4.8 nM; in assay [2], 2 nM.
For `CN1CCN(C(=O)Cn2cc(Nc3nc4c(N5CC6CCC(C5)N6C(=O)C5CCSCC5)cccn4n3)cn2)CC1` [Example 52, 1-(4-methylpiperazin-1-yl)-2-[4-[[8-[8-(tetrahydrothiopyran-4-carbonyl)-3,8-diazabicyclo[3.2.1]octan-3-yl]-[1,2,4]triazolo[1,5-a]pyridin-2-yl]amino]pyrazol-1-yl]ethanone], in that order: 5.2 nM and 3.1 nM.
